Laboratory results taken from ChEMBL document CHEMBL1124023, “Analgesic dipeptide derivatives. 4. Linear and cyclic analogues of the analgesic compounds arginyl-2-[(o-nitrophenyl)sulfenyl]tryptophan and lysyl-2-[(o-nitrophenyl)sulfenyl]tryptophan” (1988).

How the values were obtained:
Type in all cases: functional
[1] = test system: Mus musculus; assay: Analgesic activity (0.5 ug icv) tested after 5min, in mice tail-flick test
[2] = test system: Mus musculus; assay: Analgesic activity (0.5 ug icv) tested after 60min, in mice tail-flick test
[3] = test system: Mus musculus; assay: Analgesic activity (0.5 ug icv) tested after 30min, in mice tail-flick test
[4] = test system: Mus musculus; assay: Analgesic activity (5 ug icv) tested after 60min, in mice tail-flick test
[5] = test system: Mus musculus; assay: Analgesic activity (5 ug icv) tested after 5min, in mice tail-flick test
[6] = test system: Mus musculus; assay: Analgesic activity (5 ug icv) tested after 30min, in mice tail-flick test
[7] = test system: Mus musculus; assay: Analgesic activity (2.5 ug icv) tested after 30min, in mice tail-flick test
[8] = test system: Mus musculus; assay: Analgesic activity (0.5 ug icv) tested after 5 min in mice tail-flick test
[9] = test system: Mus musculus; assay: Analgesic activity (2.5 ug icv) tested after 5min, in mice tail-flick test
[10] = test system: Mus musculus; assay: Analgesic activity (2.5 ug icv) tested after 60min, in mice tail-flick test
[11] = test system: Mus musculus; assay: Analgesic activity (0.5 ug icv) tested after 60 min in mice tail-flick test
[12] = test system: Mus musculus; assay: Analgesic activity (0.5 ug icv) tested after 30 min in mice tail-flick test
[13] = test system: Mus musculus; assay: Analgesic activity (1 ug icv) tested after 30min, in mice tail-flick test
[14] = test system: Mus musculus; assay: Analgesic activity (1 ug icv) tested after 60min, in mice tail-flick test
[15] = test system: Mus musculus; assay: Analgesic activity (3.125 ug icv) tested after 30min, in mice tail-flick test
[16] = test system: Mus musculus; assay: Analgesic activity (6.25 ug icv) tested after 60min, in mice tail-flick test
[17] = test system: Mus musculus; assay: Analgesic activity (6.25 ug icv) tested after 30min, in mice tail-flick test
[18] = test system: Mus musculus; assay: Analgesic activity (3.125 ug icv) tested after 5min, in mice tail-flick test
[19] = test system: Mus musculus; assay: Analgesic activity (6.25 ug icv) tested after 5min, in mice tail-flick test
[20] = test system: Mus musculus; assay: Analgesic activity (3.125 ug icv) tested after 60min, in mice tail-flick test
[21] = test system: Mus musculus; assay: Analgesic activity (1 ug icv) tested after 5min, in mice tail-flick test
[22] = test system: Mus musculus; assay: Analgesic activity (12.5 ug icv) tested after 30min, in mice tail-flick test
[23] = test system: Mus musculus; assay: Analgesic activity (12.5 ug icv) tested after 5min, in mice tail-flick test
[24] = test system: Mus musculus; assay: Analgesic activity (25 ug icv) tested after 5min, in mice tail-flick test
[25] = test system: Mus musculus; assay: Analgesic activity (25 ug icv) tested after 60min, in mice tail-flick test
[26] = test system: Mus musculus; assay: Analgesic activity (12.5 ug icv) tested after 60min, in mice tail-flick test
[27] = test system: Mus musculus; assay: Analgesic activity (25 ug icv) tested after 30min, in mice tail-flick test

Row | SMILES | Change in reaction time [1] | Change in reaction time [2] | Change in reaction time [3] | Change in reaction time [7] | Change in reaction time [9] | Change in reaction time [10] | also measured
1 | COC(=O)[C@H](Cc1cn(Sc2ccccc2[N+](=O)[O-])c2ccccc12)NC(=O)[C@@H](N)CCCN=C(N)N | 120% | 22% | 52% | – | – | – | –
2 | COC(=O)[C@H](Cc1cn(Sc2ccccc2[N+](=O)[O-])c2ccccc12)NC(=O)[C@@H](N)CCCCN | 98% | 20% | 50% | – | – | – | –
3 | COC(=O)[C@H](CCCCN)NC(=O)[C@@H](N)Cc1cn(Sc2ccccc2[N+](=O)[O-])c2ccccc12 | 138% | 33% | 76% | – | – | – | –
4 | COC(=O)[C@@H](CCCN=C(N)N)NC(=O)[C@@H](N)Cc1cn(Sc2ccccc2[N+](=O)[O-])c2ccccc12.Cl | – | 9% | 23% | 18% | 20% | 9% | Change in reaction time [4]: 30%; Change in reaction time [5]: 97%; Change in reaction time [6]: 88%; Change in reaction time [8]: 18%
5 | COC(=O)[C@H](CCCN=C(N)N)NC(=O)[C@@H](N)Cc1cn(Sc2ccccc2[N+](=O)[O-])c2ccccc12.Cl | – | – | – | – | – | – | Change in reaction time [8]: 113%; Change in reaction time [11]: 20%; Change in reaction time [12]: 63%
6 | COC(=O)[C@H](CCCN=C(N)N)NC(=O)[C@H](N)Cc1cn(Sc2ccccc2[N+](=O)[O-])c2ccccc12.Cl | 30% | 23% | 26% | 41% | 125% | 20% | –
7 | COC(=O)[C@@H](CCCN=C(N)N)NC(=O)[C@H](N)Cc1cn(Sc2ccccc2[N+](=O)[O-])c2ccccc12.Cl | 6% | -2% | 10% | 3% | 16% | -2% | Change in reaction time [4]: 29%; Change in reaction time [5]: 34%; Change in reaction time [6]: 42%
8 | NC(N)=NCCC[C@@H](NC(=O)[C@H](N)Cc1ccc(O)cc1)C(=O)O | – | – | – | – | – | – | Change in reaction time [13]: 5%; Change in reaction time [14]: -2%; Change in reaction time [15]: 34%; Change in reaction time [16]: 10%; Change in reaction time [17]: 68%; Change in reaction time [18]: 79%; Change in reaction time [19]: 102%; Change in reaction time [20]: 15%; Change in reaction time [21]: 10%
9 | Cl.N=C(N)NCCCC1NC(=O)[C@H](Cc2cn(Sc3ccccc3[N+](=O)[O-])c3ccccc23)NC1=O (stereo in doubt) | 35% | 15% | 23% | – | – | – | –
10 | NC(N)=NCCC[C@H](NC(=O)[C@@H](N)Cc1ccc(O)cc1)C(=O)O [KYOTORPHIN] | – | – | – | – | – | – | Change in reaction time [22]: 1%; Change in reaction time [23]: 18%; Change in reaction time [24]: 98%; Change in reaction time [25]: 10%; Change in reaction time [26]: 6%; Change in reaction time [27]: 31%
